As a reminder, the AUC is concentration integrated over time. One may read the Ki as a measure of affinity in units of concentration, obtained from inhibition or displacement. Usually IC50 stands for the concentration that gives 50% inhibition.

Data set [1] in a line: Area under the curve determinations of plasma levels in rats (rrAUC), oral 10 mg/kg. The class given is in vivo. The conditions noted are these: for AUC: rat, read-out: RR AUC (rapid rat AUC, rrAUC); for RR AUC (rapid rat AUC, rrAUC): blood collected 0.5-6 h post-dosing.
The target of data set [2] is T1, purified catalytic domain of recombinant human TACE (rhTACEc) (Homo sapiens, UniProt P78536, N452Q/S266A).
T1 construct: 6xHis (C); made in house; host or cells: baculovirus/Hi5 insect cells
T1 sequence (P78536 215-477 S266A/N452Q): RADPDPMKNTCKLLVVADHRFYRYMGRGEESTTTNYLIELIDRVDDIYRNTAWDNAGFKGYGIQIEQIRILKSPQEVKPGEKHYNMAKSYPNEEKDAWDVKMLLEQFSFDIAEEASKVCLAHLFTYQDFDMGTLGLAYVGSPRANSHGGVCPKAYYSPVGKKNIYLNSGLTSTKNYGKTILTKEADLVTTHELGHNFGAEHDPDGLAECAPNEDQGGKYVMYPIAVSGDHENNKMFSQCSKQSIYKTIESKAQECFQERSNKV
Description: TACE kinetic assay: cleavage of internally quenched peptide substrate TNF-FRET 2 (Ki). In kind it is biochemical. The following applies: TNF-FRET 2 substrate.

Data set [3] relates to TNF-α production from human whole blood. Put plainly: Inhibition of TNF-α production from human whole blood (hWBA), LPS stimulated, ELISA. The conditions noted are these: Homo sapiens, TNF-α by ELISA, read-out: hWBA (IC50). The class given is cell-based. On the technique in general: In an ELISA, binding on a coated surface is turned into a signal by an enzyme label.
Setting [4] is: LPS-stimulated human whole blood.
[5] abbreviates: 3.5 h, human whole blood diluted 1:1, LPS stimulated, 3.5 h.
[6] abbreviates: human whole blood diluted 1:1, LPS stimulated.

Read-outs that look alike come from different tables or passages of the source.

Take `COc1ccc2c(c1F)C(=O)N(C[C@@]1(c3cc4nc(C5(C)NC(=O)NC5=O)ccc4o3)NC(=O)NC1=O)C2` (mixture of isomers) [Compound 1901]: the AUC in data set [1] (plasma 0.5-6 h) is 1.07 µM·h. Besides, the Ki in data set [2] (read-out: Ki) came to 0.00049 µM. Moreover, in data set [3] (setting [4]), the IC50 stood at 0.1 µM.
For `COc1ccc2c(c1F)C(=O)N(C[C@@]1(c3cc4cc([C@@]5(C)NC(=O)NC5=O)c(F)cc4o3)NC(=O)NC1=O)C2` (single isomer, unassigned) [Compound 1326] the same measures were 1.04 µM·h, 0.00063 µM and 0.156 µM.
For the compound `COc1ccc2c(c1F)C(=O)N(C[C@@]1(c3cc4cc([C@]5(C)NC(=O)NC5=O)c(F)cc4o3)NC(=O)NC1=O)C2` (single isomer, unassigned) [Compound 1327], the AUC in data set [1] (plasma 0.5-6 h) was 2.97 µM·h. Moreover, the inhibition constant Ki in data set [2] (read-out: Ki) was found to be 0.00047 µM. Besides, the IC50 in data set [3] (setting [4]) amounted to 0.161 µM.
Turning to `COc1ccc2c(c1F)C(=O)N(C[C@@]1(c3cc4cnc(C)cc4o3)NC(=O)NC1=O)C2` [Compound 30], the exposure (AUC) in data set [1] (plasma 0.5-6 h post-dosing) amounted to 26.3 µM·h. Moreover, the Ki in data set [2] (read-out: Ki) came to 0.00038 µM. In addition, in data set [3] (setting [5]), the IC50 worked out at 0.205 µM.
As for `COc1ccc2c(c1F)C(=O)N(C[C@@]1(c3cc4cc(C)ncc4o3)NC(=O)NC1=O)C2` [Compound 305], the AUC in data set [1] (plasma 0.5-6 h) was determined as 19.1 µM·h. For the same compound, in data set [2] (read-out: Ki), the inhibition constant Ki turned out to be 0.00064 µM. In data set [3] (setting [4]), the half-maximal inhibitory concentration (IC50) came out at 0.241 µM.
Take `CCOC(=O)N1CCc2oc([C@]3(CN4Cc5ccc(OC)cc5C4=O)NC(=O)NC3=O)cc2C1` [Compound 315]: the exposure (AUC) in data set [1] (plasma 0.5-6 h) was 4.03 µM·h. For the same compound, the inhibition constant (Ki) in data set [2] (Ki) worked out at 0.00093 µM. For the same compound, in data set [3] (setting [4]), the 50% inhibitory concentration (IC50) stood at 0.654 µM.
For the compound `CCNC(=O)N1CCc2oc([C@]3(CN4Cc5ccc(OC)cc5C4=O)NC(=O)NC3=O)cc2C1` [Compound 320], the AUC in data set [1] (plasma 0.5-6 h) is 0.011 µM·h. In data set [2] (read-out: Ki), the Ki worked out at 0.0004 µM. The 50% inhibitory concentration (IC50) in data set [3] (setting [4]) amounted to 0.309 µM.
As to `COc1ccc2c(c1)C(=O)N(C[C@@]1(c3cc4c(C#N)nccc4o3)NC(=O)NC1=O)C2` [Compound 323], the AUC in data set [1] (plasma 0.5-6 h) came to 0.485 µM·h. Further, the Ki in data set [2] (Ki) stood at 0.0007 µM. Also, in data set [3] (setting [4]), the IC50 amounted to 1.24 µM.
In the case of `COc1ccc2c(c1)C(=O)N(C[C@@]1(c3cc4cc(C5(C)NC(=O)NC5=O)cnc4o3)NC(=O)NC1=O)C2` (some centres unmarked) [Compound 500], the exposure (AUC) in data set [1] (plasma 0.5-6 h) came out at 1.1 µM·h. In addition, in data set [2] (read-out: Ki), the inhibition constant Ki amounted to 0.000695 µM. In addition, the IC50 in data set [3] (setting [4]) stood at 0.163 µM.
Consider `COc1ccc2c(c1)C(=O)N(C[C@@]1(c3cn4ccsc4n3)NC(=O)NC1=O)C2` [Compound 502C], for which the AUC in data set [1] (plasma 0.5-6 h) came out at 2.22 µM·h. Also, in data set [2] (Ki), the Ki was 0.00126 µM. In data set [3] (setting [4]), the IC50 is 0.538 µM.
With `COc1ccc2c(c1F)C(=O)N(C[C@@]1(c3cc4cc(C5(C)NC(=O)NC5=O)cnc4o3)NC(=O)NC1=O)C2` (some centres unmarked) [Compound 504], the exposure (AUC) in data set [1] (plasma 0.5-6 h) was 3.66 µM·h. For the same compound, the inhibitory constant (Ki) in data set [2] (read-out: Ki) turned out to be 0.000758 µM. Besides, the IC50 in data set [3] (setting [4]) turned out to be 0.239 µM.
`COc1ccc2c(c1)C(=O)N(C[C@@]1(c3cn4cccnc4n3)NC(=O)NC1=O)C2` [Compound 750]: the AUC in data set [1] (plasma 0.5-6 h) worked out at 0.32 µM·h. The Ki in data set [2] (Ki) turned out to be 0.00191 µM. Further, the concentration for half-maximal inhibition (IC50) in data set [3] (setting [4]) stood at 0.705 µM.
As for `CCN1CCN(c2ccc3oc([C@]4(CN5Cc6ccc(OCC7CC7)c(F)c6C5=O)NC(=O)NC4=O)cc3n2)CC1` [Compound 900], the AUC in data set [1] (plasma 0.5-6 h) was determined as 0.024 µM·h. Further, in data set [2] (read-out: Ki), the Ki turned out to be 0.00052 µM. For the same compound, in data set [3] (setting [4]), the IC50 stood at 0.29 µM.
Regarding `CCOc1ccc2c(c1F)C(=O)N(C[C@@]1(c3cc4nc(N5CCN(CC)CC5)ccc4o3)NC(=O)NC1=O)C2` [Compound 903], in data set [1] (plasma 0.5-6 h), the AUC is 1 µM·h. Further, the inhibitory constant (Ki) in data set [2] (read-out: Ki) came out at 0.000557 µM. Also, in data set [3] (setting [4]), the half-maximal inhibitory concentration (IC50) was determined as 0.193 µM.
As to `COc1ccc2c(c1)C(=O)N(C[C@@]1(c3cc4cc(-c5cn[nH]c5)c(F)cc4o3)NC(=O)NC1=O)C2` [Compound 1186], in data set [1] (plasma 0.5-6 h post-dosing), the AUC is 0.285 µM·h. For the same compound, the Ki in data set [2] (read-out: Ki) was 0.00056 µM. Moreover, the concentration for half-maximal inhibition (IC50) in data set [3] (setting [5]) worked out at 0.55 µM.
For `COc1ccc2c(c1F)C(=O)N(C[C@@]1(c3cc4cc(-c5cn[nH]c5)c(F)cc4o3)NC(=O)NC1=O)C2` [Compound 1187] the same measures were 1.07 µM·h, 0.00023 µM and 0.286 µM.
For `COc1ccc2c(c1)C(=O)N(C[C@@]1(c3cc4cc(-c5ccc(N)nc5)c(F)cc4o3)NC(=O)NC1=O)C2` [Compound 1188] the same measures were 0.355 µM·h, 0.00051 µM and 0.72 µM.
Turning to `COc1ccc2c(c1)C(=O)N(C[C@@]1(c3cc4cc(C(=O)NCCN(C)C)c(F)cc4o3)NC(=O)NC1=O)C2` [Compound 1273], the area under the curve (AUC) in data set [1] (plasma 0.5-6 h post-dosing) amounted to 0.037 µM·h. Also, the inhibition constant (Ki) in data set [2] (read-out: Ki) stood at 0.00059 µM. Further, the half-inhibitory concentration (IC50) in data set [3] (setting [5]) came out at 0.181 µM.
Consider `COc1ccc2c(c1F)C(=O)N(C[C@@]1(c3cc4nc(N5CCC(N(C)C)CC5)ccc4o3)NC(=O)NC1=O)C2` [Compound 1298], for which the AUC in data set [1] (plasma 0.5-6 h post-dosing) was found to be 0.037 µM·h. Moreover, in data set [3] (setting [5]), the concentration for half-maximal inhibition (IC50) stood at 0.079 µM.
Turning to `CCC1(c2cc(F)c3oc([C@]4(CN5Cc6ccc(OC)c(F)c6C5=O)NC(=O)NC4=O)cc3c2)NC(=O)NC1=O` (some centres unmarked) [Compound 1305], in data set [1] (plasma 0.5-6 h), the exposure (AUC) turned out to be 1.87 µM·h. Also, the inhibitory constant (Ki) in data set [2] (read-out: Ki) turned out to be 0.00077 µM. Also, the concentration for half-maximal inhibition (IC50) in data set [3] (setting [4]) came to 0.239 µM.
`CCC1(c2ccc3oc([C@]4(CN5Cc6ccc(OC)c(F)c6C5=O)NC(=O)NC4=O)cc3c2)NC(=O)NC1=O` (some centres unmarked) [Compound 1307]: the exposure (AUC) in data set [1] (plasma 0.5-6 h) was 2.01 µM·h. Moreover, the Ki in data set [2] (read-out: Ki) is 0.00081 µM. For the same compound, the IC50 in data set [3] (setting [4]) came to 0.204 µM.
For `COc1ccc2c(c1F)C(=O)N(C[C@@]1(c3cc4cc5c(c(-c6cccnc6)c4o3)C(=O)NC5)NC(=O)NC1=O)C2` [Compound 1310], in data set [1] (plasma 0.5-6 h), the exposure (AUC) stood at 0.614 µM·h.
For `COc1ccc2c(c1F)C(=O)N(C[C@@]1(c3cc4nc(N5CC(=O)NC5=O)c(F)cc4o3)NC(=O)NC1=O)C2` [Compound 1330], the exposure (AUC) in data set [1] (plasma 0.5-6 h) is 3.19 µM·h. Besides, the inhibition constant (Ki) in data set [2] (Ki) was 0.00039 µM.
In the case of `COc1ccc2c(c1F)C(=O)N(C[C@@]1(c3cc4nc(N5CCNC(=O)C5)ccc4o3)NC(=O)NC1=O)C2` [Compound 1700], in data set [1] (plasma 0.5-6 h), the AUC was determined as 0.105 µM·h. Besides, the inhibitory constant (Ki) in data set [2] (Ki) was 0.0006 µM.
With `COc1ccc2c(c1)C(=O)N(C[C@@]1(c3cc4nc(N(c5cn[nH]c5)C5CCN(C)CC5)ccc4o3)NC(=O)NC1=O)C2` [Compound 1703], in data set [1] (plasma 0.5-6 h), the AUC was determined as 0.064 µM·h. Further, the Ki in data set [2] (Ki) stood at 0.001 µM.
`CCCN1CCN(c2ccc3oc([C@]4(CN5Cc6ccc(OC)c(F)c6C5=O)NC(=O)NC4=O)cc3n2)CC1` [Compound 1708]: the exposure (AUC) in data set [1] (plasma 0.5-6 h) was 10.4 µM·h. Besides, the IC50 in data set [3] (setting [4]) was found to be 0.175 µM.
For `COc1ccc2c(c1)C(=O)N(C[C@@]1(c3cc4nc(-c5ccnn5C)ccc4o3)NC(=O)NC1=O)C2` [Compound 2116], the AUC in data set [1] (plasma 0.5-6 h post-dosing) is 5.19 µM·h. Also, the half-inhibitory concentration (IC50) in data set [3] (setting [5]) turned out to be 1.21 µM.
On the same counts, the results for `COc1ccc2c(c1)C(=O)N(C[C@@]1(c3cc4nc(N5CC(C)NC(C)C5)ccc4o3)NC(=O)NC1=O)C2` (some centres unmarked) [Compound 2120] are 5.19 µM·h and 1.21 µM.
As to `COc1ccc2c(c1)C(=O)N(C[C@@]1(c3cc4nc(-c5ccc(N6CCOCC6)nc5)ccc4o3)NC(=O)NC1=O)C2` [Compound 2151], the AUC in data set [1] (plasma 0.5-6 h post-dosing) was 0.692 µM·h. For the same compound, in data set [3] (setting [5]), the IC50 worked out at 0.8 µM.
With `CCOC(=O)N1CCc2oc([C@]3(CN4Cc5ccc(OC)cc5C4=O)NC(=O)NC3=O)cc2C1` [Compound 2437], the “RR AUC (rapid rat AUC, rrAUC)” value in data set [1] was determined as 4.026 µM·h. In addition, in data set [3] (setting [6]), the IC50 amounted to 0.654 µM.
For `COc1ccc2c(c1)C(=O)N(C[C@@]1(c3cc4c(C#N)nccc4o3)NC(=O)NC1=O)C2` [Compound 2445] the same measures were 0.485 µM·h and 1.24 µM.
Take `COc1ccc2c(c1)C(=O)N(C[C@@]1(c3cc4nc(C(N)=O)ccc4o3)NC(=O)NC1=O)C2` [Compound 2457]: the “RR AUC (rapid rat AUC, rrAUC)” value in data set [1] turned out to be 0.113 µM·h. The IC50 in data set [3] (setting [6]) was determined as 0.2 µM.

Source of the values: patent publication US8569336B2, “Compounds for the treatment of inflammatory disorders” (priority 2008, dated 2013).
